These results are taken from patent US20240277727A1, “CHARGED ION CHANNEL BLOCKERS AND METHODS FOR USE” (Nocion Therapeutics, Inc., priority 2019, published 2024).

The target in data set [1] is T1, NaV1.7 (Homo sapiens, UniProt Q15858).
T1 construct: expressed in transfected cells; tetracycline-inducible, kept under hygromycin and blasticidin selection
In words: Intracellular (internal block) inhibition of NaV1.7 current, whole cell patch clamp. Format: cell-based. As to conditions: compound in internal solution; for inhibition at 1 µM: read-out: Nav 1.7 Intracellular Inhibition. On the procedure: (§1) NaV1.7 was expressed upon induction with tetracycline. Cells were cultured in DMEM containing 10% dialyzed Fetal Bovine Serum (VWR, Radnor, PA), 1% Glutamax (VWR, Radnor, PA), 1% Penicillin-Streptomycin (VWR, Radnor, PA), 100 mg/L Hygromycin (Thermo Fisher Scientific, Waltham, MA and 5 mg/L Blasticidin (Alfa Aesar, Haverhill, MA). Cells were grown and maintained at 37° C. in a humidified environment containing 10% CO2 in air. Cells were detached from the culture flask for passage and harvested using 0.05% Trypsin-EDTA (Thermo Fisher Scientific, Waltham, MA). To induce NaV1.7, cells were induced with tetracycline (0.1-1 μg/mL, IBI Scientific, Peosta, IA) the day before recording and plated onto 24-well plates. Cells were washed with DPBS (VWR, Radnor, PA), trypsinized and then triturated five times in 10 mL of growth media to break apart cell aggregates. For one 24-well plate, 2 mL of cell suspension was mixed with 23 mL of fresh growth media and 0.1-1 μg/mL tetracycline added. 1 ml of mixed media with cells was then added to each well of a 24-well plate, with a 12 mm coverslip already placed in the bottom of the well. Cells were then incubated in 37° C. and 10% CO2 overnight.
The intracellular solution contained the following (in mM) CsCl 135, NaCl 10, EGTA 10, HEPES 10, MgCl2 2, adjusted to pH 7.2 with CsOH. The external solution was a normal Ringer solution containing (in mM) NaCl 155, HEPES 10, glucose 10, KCl 3.5, CaCl2 1.5, MgCl2 1 adjusted to pH 7.4 with NaOH. CsCl is from Alfa Aesar, Haverhill, MA. All other chemicals are from Sigma-Aldrich, St. Louis, MO. In order to test the degree of internal block by test compounds the compounds were dissolved in internal solution at the indicated test concentration. […] In order to test the degree of external block by test compounds the compounds were dissolved in external solution at the indicated test concentration.
18-24 hours after cells were induced with tetracycline, coverslips were placed into a chamber filled with Normal Ringer solution at room temperature and the chamber placed on a microscope. Pipettes were pulled from borosilicate glass on a P97 puller (Sutter Instrument, Novato, CA) and polished with a MF-830 Microforge (Narishige International USA, Inc, Amityville, NY) to have a resistance of 1.5-2.5 MΩ when filled with CsCl internal solution at room temperature. Healthy cells (those that are round and translucent with no visible blemishes) were chosen for seal formation. A seal was formed between the pipette and the cell, and a brief pulse of suction was used to “break in” and establish the whole-cell configuration. The membrane potential was held at −100 mV before the voltage protocol began. Only cells with series resistance between 1.5-5 MΩ were retained for analysis. The voltage protocol was as follows: Cells were held at −100 mV for 12 ms followed by a hyperpolarizing step to −105 mV for 12 ms to monitor the leak. Cells were then stepped back to −100 mV for 40 ms. Cells were then depolarized to −20 mV for 10 ms and then returned to −100 mV for 26 ms.
Once the recording was started, the voltage protocol was run at 30 second intervals for 5 minutes to get a stable baseline. This was followed by four 30-second periods of 5 Hz stimulation of the same voltage protocol separated by 1 minute of rest which was then followed by 0.33 Hz stimulation after the last train. Currents were recorded using PatchMaster software with Heka EPC10 (HEKA Electronics, Lambrecht, Germany). Only cells with inward current amplitudes at −20 m V between 400 pA and 4 nA were accepted. In addition, cells having leak currents greater than 10% of their current amplitudes were discarded.
(§2) The data was plotted using the Patchmaster software (HEKA Electronics, Lambrecht, Germany) and analyzed by plotting the minimum current during the voltage step to −20 m V (peak inward current) as a function of time. […]

Data set [2] can be described thus: PAMPA membrane permeability assay. The settings on record: pH 7.4, GIT lipid, 4 hours incubation. Format: in vitro ADME. The procedure:
The PAMPA assay (pION, Inc., Woburn MA) was used to determine the ability of compounds of the invention to cross an artificial lipid membrane by passive diffusion. Test compounds were dissolved in DMSO (10 mM) and diluted 200-fold in buffer (pION Inc., pH 7.4) to provide 50 μM stock solutions. Buffer (150 μL) was added to a UV blank plate and stock solutions (150 μL) were transferred to a UV reference plate. The blank and reference spectrum were read using a spectrophotometer. Stock solutions (200 μL) were added to the donor plate of the PAMPA sandwich plate and an accept plate painted with GIT lipid (pION Inc, 5 μL) was placed on top. Buffer (200 μL) was added to the acceptor plate and the PAMPA sandwich plate was incubated for 4 hours. Aliquots (150 μL) from the acceptor plate were added to a UV plate and read as acceptor spectrum. Aliquots (150 μL) of the donor solutions were added to a UV analysis plate and read as donor spectrum. The permeability coefficient of test compounds was calculated using PAMPA Explorer™ software (version 3.5.0.4) based on the AUC of the reference plate, the donor plate, and the acceptor plate.

Data set [3] concerns the target T1, NaV1.7. The data set can be described thus: Extracellular (external block) inhibition of NaV1.7 current, whole cell patch clamp. Format: cell-based. As to conditions: compound in external solution. On the procedure: as §1, with “For one 24-well plate, 2 mL of cell suspension was mixed with 23 mL of fresh growth media and 0.1-1 μg/mL tetracycline added. 1 ml of mixed media with cells was then added to each well of a 24-well plate, with a 12 mm coverslip already placed in the bottom of the well. Cells were then incubated in 37° C. and 10% CO2 overnight.” left out
Once the recording was started, the voltage protocol was run at 30 second intervals for 5 minutes to get a stable baseline. […] Currents were recorded using PatchMaster software with Heka EPC10 (HEKA Electronics, Lambrecht, Germany). […]
as §2
On the technique in general: In patch-clamp work, channel activity is measured electrically.

Bounds are passed on as bounds.

T1 sequence (Q15858 whole entry): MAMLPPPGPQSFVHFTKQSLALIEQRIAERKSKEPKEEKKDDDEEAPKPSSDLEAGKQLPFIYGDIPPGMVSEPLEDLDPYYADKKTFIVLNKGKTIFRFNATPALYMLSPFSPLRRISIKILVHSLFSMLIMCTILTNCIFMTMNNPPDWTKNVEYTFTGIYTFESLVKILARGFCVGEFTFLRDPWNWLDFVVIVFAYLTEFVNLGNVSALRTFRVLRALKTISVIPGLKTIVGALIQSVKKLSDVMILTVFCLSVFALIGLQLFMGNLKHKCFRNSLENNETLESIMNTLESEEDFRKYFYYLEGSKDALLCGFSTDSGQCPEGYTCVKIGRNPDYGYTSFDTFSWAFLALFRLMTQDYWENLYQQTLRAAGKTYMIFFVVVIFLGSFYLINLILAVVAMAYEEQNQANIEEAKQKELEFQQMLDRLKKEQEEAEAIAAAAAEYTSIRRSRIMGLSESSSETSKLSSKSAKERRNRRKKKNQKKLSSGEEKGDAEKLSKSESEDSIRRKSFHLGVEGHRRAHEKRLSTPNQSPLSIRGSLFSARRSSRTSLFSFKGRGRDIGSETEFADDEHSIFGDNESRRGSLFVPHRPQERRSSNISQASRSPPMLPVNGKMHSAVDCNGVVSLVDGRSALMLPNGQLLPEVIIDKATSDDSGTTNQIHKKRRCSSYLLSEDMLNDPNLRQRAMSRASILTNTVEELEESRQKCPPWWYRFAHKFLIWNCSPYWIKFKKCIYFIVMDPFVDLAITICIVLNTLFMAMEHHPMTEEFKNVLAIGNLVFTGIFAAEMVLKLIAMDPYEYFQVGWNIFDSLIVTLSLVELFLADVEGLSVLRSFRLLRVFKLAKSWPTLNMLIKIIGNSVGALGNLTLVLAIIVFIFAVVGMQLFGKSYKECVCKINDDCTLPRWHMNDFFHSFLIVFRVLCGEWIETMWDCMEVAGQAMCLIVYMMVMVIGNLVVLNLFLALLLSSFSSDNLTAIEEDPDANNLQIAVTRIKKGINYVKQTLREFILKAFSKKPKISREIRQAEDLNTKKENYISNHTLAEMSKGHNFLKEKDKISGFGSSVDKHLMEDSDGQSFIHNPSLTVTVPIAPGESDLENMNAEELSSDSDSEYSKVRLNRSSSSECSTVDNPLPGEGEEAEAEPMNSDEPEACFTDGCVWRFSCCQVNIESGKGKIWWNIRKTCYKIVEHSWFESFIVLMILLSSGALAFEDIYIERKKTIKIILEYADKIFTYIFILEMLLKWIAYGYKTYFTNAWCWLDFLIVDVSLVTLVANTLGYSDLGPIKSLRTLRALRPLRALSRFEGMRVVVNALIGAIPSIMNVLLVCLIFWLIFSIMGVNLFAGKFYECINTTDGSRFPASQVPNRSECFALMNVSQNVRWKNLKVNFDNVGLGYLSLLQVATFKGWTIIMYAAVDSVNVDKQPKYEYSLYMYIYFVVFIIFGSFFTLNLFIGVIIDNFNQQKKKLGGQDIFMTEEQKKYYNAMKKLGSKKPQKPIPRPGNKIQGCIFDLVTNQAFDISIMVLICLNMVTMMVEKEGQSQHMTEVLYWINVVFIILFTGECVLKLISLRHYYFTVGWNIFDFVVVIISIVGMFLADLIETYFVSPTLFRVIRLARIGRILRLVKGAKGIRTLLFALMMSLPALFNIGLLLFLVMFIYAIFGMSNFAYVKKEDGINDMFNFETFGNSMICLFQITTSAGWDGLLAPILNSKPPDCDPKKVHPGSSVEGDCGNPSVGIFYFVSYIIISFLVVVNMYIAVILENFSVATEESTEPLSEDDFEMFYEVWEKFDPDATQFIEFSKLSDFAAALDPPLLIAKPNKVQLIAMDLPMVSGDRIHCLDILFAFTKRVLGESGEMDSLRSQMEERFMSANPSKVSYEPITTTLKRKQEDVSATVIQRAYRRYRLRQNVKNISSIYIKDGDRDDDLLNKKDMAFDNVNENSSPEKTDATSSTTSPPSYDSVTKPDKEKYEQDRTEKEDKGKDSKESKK

As a reminder, the inhibition is the change of the read-out against control, counted positive when it falls. Take `CCC(C(=O)Nc1c(C)csc1C(=O)OC)[N+]1(Cc2ccccc2)CCCCC1.[Br-]` (stereo not shown) [G]: the inhibition at 1 µM in data set [1] lay within 40 to 70%. Moreover, in data set [2], the “PAMPA (10^−6 cm/s)” value is recorded as “+ (“+” (<0.1 10^−6 cm/s))”.

Turning to `CCCOC(=O)c1scc(C)c1NC(=O)C[N+]1(Cc2ccccc2)CCCCCC1.[Br-]` [C], the inhibition at 1 µM in data set [1] was over 90%. Also, in data set [2], the “PAMPA (10^−6 cm/s)” value is “+ (“+” (<0.1 10^−6 cm/s))”.

For `Cc1csc(C(=O)OC(C)C)c1NC(=O)C[N+]1(Cc2ccccc2)CCCCCC1.[Br-]` [E], in data set [1], the inhibition at 1 µM lay within 70 to 90%. In data set [2], the “PAMPA (10^−6 cm/s)” value is reported as “++ (“++” (0.1-2.0 10^−6 cm/s))”.

For the molecule `COC(=O)c1scc(C)c1NC(=O)C[N+]1(Cc2ccccc2)CCCC1.[Br-]` [A], in data set [1], the inhibition at 1 µM was 40 to 70%. Besides, the “PAMPA (10^−6 cm/s)” value in data set [2] was “+ (“+” (<0.1 10^−6 cm/s))”.

As to `CC[N+]1(CC(=O)Nc2c(C)csc2C(=O)OC)CCCC(c2ccccc2)C1.[I-]` (stereo not shown) [F], the inhibition at 1 µM in data set [1] lay in the range of 70 to 90%. Also, in data set [2], the “PAMPA (10^−6 cm/s)” value is “+ (“+” (<0.1 10^−6 cm/s))”.

With `COC(=O)c1scc(C)c1NC(=O)C[N+]1(Cc2ccccc2)CCCCC1.[Br-]` [B], in data set [1], the inhibition at 1 µM is 40 to 70%. The “PAMPA (10^−6 cm/s)” value in data set [2] was “++ (“++” (0.1-2.0 10^−6 cm/s))”.

Regarding `CCOC(=O)c1scc(C)c1NC(=O)C[N+]1(Cc2ccccc2)CCCCCC1.[Br-]` [D], the values for the inhibition at 1 µM in data set [1] and in data set [3] (test concentration of 1 μM) were over 90% and under 40%, respectively. Moreover, the “PAMPA (10^−6 cm/s)” value in data set [2] is given as “+ (“+” (<0.1 10^−6 cm/s))”.

As usually defined, the Papp is a coefficient for how fast a substance crosses the barrier. With `COC(=O)c1scc(C)c1NC(=O)C[N+]1(Cc2ccccc2)CCCCCC1.[Br-]` [Compound-31, 1-benzyl-1-(2-((2-(methoxycarbonyl)-4-methylthiophen-3-yl)amino)-2-oxoethyl) azepan-1-ium bromide], the inhibition at 1 µM in data set [1] fell in the range of 70 to 90%. For the same molecule, the inhibition at 3 µM in data set [1] (test concentration of 3 μM) is over 95%; in data set [3] (test concentration of 3 μM), under 40%. Moreover, the Papp at 4 h, 50 µM in data set [2] (PAMPA) was determined as 0.4 ×10⁻⁶ cm/s. The “PAMPA (10^−6 cm/s)” value in data set [2] is recorded as “++ (“++” (0.1-2.0 10^−6 cm/s))”.

Regarding `Cc1csc(C)c1NC(=O)C[N+]1(Cc2ccccc2)CCCCCC1.[Br-]` [H], in data set [1], the inhibition at 1 µM lay in the range of 40 to 70%. Further, the “PAMPA (10^−6 cm/s)” value in data set [2] was “+ (“+” (<0.1 10^−6 cm/s))”.
